How the values were obtained:
Ba/F3_KRAS^G12D cells = Ba/F3_KRAS^G12D cells (Homo sapiens, UniProt P01116, G12D, cells depend on it); assay: Ba/F3 KRAS G12D cell proliferation assay (CellTiter-Glo); type: cell-based; settings: treated for 3 days, cell-titer Glo, cell growth inhibition, read-out: BaF3_KRAS^G12D IC50
Method: Ba/F3_KRAS^G12D cells (KYinno, China) were generated by transducing Ba/F3 parental cells with the recombinant KRAS^G12D lentivirus and followed by 1 ug/mL of puromycin selection and IL3 depletion. […] Cells were seeded at a density of 5×10^3 per well into 96-well plate and incubated overnight. Serial diluted compounds were added to each well. Cells were treated with the compounds for 3 days, after which cell-titer Glo reagent (Promega #G7572) was used to assess cell proliferation. The luminescence signal was then collected on Tecan Spark plate reader. […] Cell growth inhibition of IC50 is calculated with the equation of Y=Bottom+(Top−Bottom)/(1+10^((Log IC50−X)*Hill Slope))

[1] = molecular target: recombinant human KRAS^G12D protein (Homo sapiens, UniProt P01116, G12D); assay: Temperature-dependent Fluorescence (TdF) KRAS G12D protein binding assay; settings: 6 μM KRAS^G12D protein, 10 μM compound, Sypro Orange; Kd calculated from the fluorescent shift
Method: The Temperature-dependent Fluorescence (TdF) assay was used to analyze binding affinity of compound to recombinant human KRAS^G12D protein. The TdF assay was conducted in the 96-well-based real-time fluorescence plate reader (ABI 7500 or Roche LightCycler 480). Fluorescent dye Sypro Orange (Sigma) was used to monitor the protein folding-unfolding transition. Protein-compound binding was gauged by the shift in the unfolding transition temperature (ΔTm) acquired with and without compound. Each reaction sample consists of 6 μM KRAS^G12D Protein, 10 μM compound, and Sypro Orange dye (in 1% DMSO) in 20 μL reaction buffer (25 mM HEPES pH 7.5, 150 mM NaCl, 10 mM MgCl2). […] Binding affinity (Kd value) was calculated based on the degree of fluorescent shift of the protein with and without compound.

Chain of Ba/F3_KRAS^G12D cells (P01116 whole entry G12D): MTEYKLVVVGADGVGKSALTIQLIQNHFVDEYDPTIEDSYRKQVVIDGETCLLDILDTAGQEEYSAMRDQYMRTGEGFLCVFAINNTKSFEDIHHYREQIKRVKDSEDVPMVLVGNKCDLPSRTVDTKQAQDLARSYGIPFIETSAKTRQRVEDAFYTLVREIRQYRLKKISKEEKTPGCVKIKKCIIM
Chain of recombinant human KRAS^G12D protein (P01116 1-188 isoform P01116-2 G12D): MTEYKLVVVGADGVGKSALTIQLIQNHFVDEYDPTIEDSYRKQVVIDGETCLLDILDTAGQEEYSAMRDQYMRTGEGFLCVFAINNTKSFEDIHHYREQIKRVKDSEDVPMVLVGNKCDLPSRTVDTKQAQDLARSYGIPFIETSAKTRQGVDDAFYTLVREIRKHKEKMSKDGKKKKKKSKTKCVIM

SMILES	GI50 (Ba/F3_KRAS^G12D cells)	Kd [1]
Oc1cc(-c2c(Cl)cc3c(N4CC5CCC(C4)N5)nc(OC[C@@]45CCCN4C[C@H](F)C5)nc3c2F)c2c(Cl)c(F)ccc2c1 (single isomer, unassigned) [Compound 138]	< 500 nM	< 500 nM
C#Cc1c(F)ccc2cc(O)cc(-c3c(Cl)cc4c(N5CC6CCC(C5)N6)nc(OC[C@@]56CCCN5C[C@H](F)C6)nc4c3F)c12 (single isomer, unassigned) [Compound 154]	< 500 nM	< 500 nM
CN1CCC[C@H]1COc1nc(N2CCNCC2)c2cc(Cl)c(-c3cc(O)cc4ccccc34)c(F)c2n1 [Compound 1]	500 to 5000 nM	> 5000 nM
CN1CCC[C@H]1COc1nc(N2CC3CCC(C2)N3)c2cc(Cl)c(-c3cc(O)cc4ccccc34)c(F)c2n1 [Compound 2]	500 to 5000 nM	< 500 nM
C[C@H]1CNCCN1c1nc(OC[C@@H]2CCCN2C)nc2c(F)c(-c3cc(O)cc4ccccc34)c(Cl)cc12 [Compound 3]	500 to 5000 nM	> 5000 nM
CN1CCC[C@H]1COc1nc(N2CC3CCC(C2)N3)c2cc(Cl)c(-c3c(O)cccc3F)c(F)c2n1 [Compound 4]	> 5000 nM	500 to 5000 nM
CN(C)CCCOc1nc(N2CC3CCC(C2)N3)c2cc(Cl)c(-c3cc(O)cc4ccccc34)c(F)c2n1 [Compound 5]	500 to 5000 nM	500 to 5000 nM
CN(C)CCCOc1nc(N2CC3CCC(C2)N3)c2cc(Cl)c(-c3cccc4cccc(Cl)c34)c(F)c2n1 [Compound 6]	500 to 5000 nM	> 5000 nM
CN1CCC[C@H]1COc1nc(N2CC3CCC(C2)N3)c2cc(Cl)c(-c3cccc4cccc(Cl)c34)c(F)c2n1 [Compound 7]	500 to 5000 nM	> 5000 nM
CN(C)CCCOc1nc(N2CC3CCC(C2)N3)c2cc(Cl)c(-c3c(O)cccc3F)c(F)c2n1 [Compound 8]	> 5000 nM	> 5000 nM
CN1CCC[C@H]1COc1nc(N2CC3CCCC(C2)N3)c2cc(Cl)c(-c3cc(O)cc4cccc(Cl)c34)c(F)c2n1 [Compound 11]	500 to 5000 nM	500 to 5000 nM
CN1CCC[C@H]1COc1nc(N2CCNC(CC(N)=O)C2)c2cc(Cl)c(-c3cc(O)cc4ccccc34)c(F)c2n1 (stereo partly shown) [Compound 12]	> 5000 nM	> 5000 nM

More lines, now with the values ahead:

GI50 (Ba/F3_KRAS^G12D cells)	Kd [1]	SMILES
500 to 5000 nM	> 5000 nM	Oc1cc(-c2c(Cl)cc3c(N4CC5CCC(C4)N5)nc(OC[C@@]45CCCN4C[C@H](F)C5)nc3c2F)c2ccccc2c1 (single isomer, unassigned) [Compound 108]
< 500 nM	< 500 nM	Cc1cccc2cc(O)cc(-c3c(Cl)cc4c(N5CC6CCC(C5)N6)nc(OC[C@@]56CCCN5C[C@H](F)C6)nc4c3F)c12 (single isomer, unassigned) [Compound 117]
< 500 nM	< 500 nM	Cc1cccc2cc(O)cc(-c3c(Cl)cc4c(N5CC6CCC(C5)N6)nc(OC[C@@]56CCCN5C[C@H](F)C6)nc4c3F)c12 (single isomer, unassigned) [Compound 118]
500 to 5000 nM	> 5000 nM	N#Cc1cc2c(N3CC4CCC(C3)N4)nc(OC[C@@]34CCCN3C[C@H](F)C4)nc2c(F)c1-c1cc(O)cc2cccc(Cl)c12 (single isomer, unassigned) [Compound 119]
< 500 nM	< 500 nM	N#Cc1cc2c(N3CC4CCC(C3)N4)nc(OC[C@@]34CCCN3C[C@H](F)C4)nc2c(F)c1-c1cc(O)cc2cccc(Cl)c12 (single isomer, unassigned) [Compound 120]
< 500 nM	< 500 nM	CCc1cccc2cc(O)cc(-c3c(Cl)cc4c(N5CC6CCC(C5)N6)nc(OC[C@@]56CCCN5C[C@H](F)C6)nc4c3F)c12 (single isomer, unassigned) [Compound 133]
500 to 5000 nM	> 5000 nM	CCc1cccc2cc(O)cc(-c3c(Cl)cc4c(N5CC6CCC(C5)N6)nc(OC[C@@]56CCCN5C[C@H](F)C6)nc4c3F)c12 (single isomer, unassigned) [Compound 134]
< 500 nM	< 500 nM	Oc1cc(-c2c(Cl)cc3c(N4CC5CCC(C4)N5)nc(OC[C@@]45CCCN4C[C@H](F)C5)nc3c2F)c2c(Cl)c(F)ccc2c1 (single isomer, unassigned) [Compound 139]

From patent publication US20230242544A1, “QUINAZOLINE COMPOUNDS, PREPARATION METHODS AND USES THEREOF” (INVENTISBIO CO., LTD., priority 2020, published 2023)
